Test results from patent US20100317647A1 (priority 2009, published 2010).

What follows are compounds tested against human Cat S (Homo sapiens, UniProt P25774) (assay: Cathepsin enzyme inhibition assay (fluorogenic peptide substrate cleavage)). Details: human Cat S 1 nM; substrate Z-Val-Val-Arg-AMC 20 μM; pH 6.5; fluorescence over 20 minutes.
Type: biochemical
Summary of the method: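 Fluorogenic cleavage of Z-Val-Val-Arg-AMC (20 μM) by 1 nM enzyme in 100 mM potassium phosphate pH 6.5, 5 mM EDTA, 5 mM DTT, 0.001% Triton X-100. Reaction started with substrate; fluorescence (ex 360/em 465 nm) followed over 20 minutes. IC50 by standard methods.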

Sequence of human Cat S (P25774 115-331): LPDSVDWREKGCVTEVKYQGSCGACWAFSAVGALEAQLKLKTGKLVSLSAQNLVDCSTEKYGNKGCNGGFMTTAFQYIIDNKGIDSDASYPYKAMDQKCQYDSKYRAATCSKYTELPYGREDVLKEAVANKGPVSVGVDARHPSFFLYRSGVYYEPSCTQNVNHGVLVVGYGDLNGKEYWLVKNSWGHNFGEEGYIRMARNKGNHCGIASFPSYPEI

| SMILES | IC50 [nM] |
| --- | --- |
| N#CC1(NC(=O)[C@@H]2C[C@@H](S(=O)(=O)c3ccc(F)cc3Cl)C[C@H]2COc2ccc(Cl)nc2)CC1 [Example 162, (1R,2R,4S)-4-(2-Chloro-4-fluoro-benzenesulfonyl)-2-(6-chloro-pyridin-3-yloxymethyl)-cyclopentanecarboxylic acid (1-cyano-cyclopropyl)-amide] | 14.7 |
| N#CC1(NC(=O)[C@@H]2C[C@@H](S(=O)(=O)c3ccc(F)cc3Cl)C[C@H]2COc2ccncc2)CC1 [Example 163, (1R,2R,4S)-4-(2-Chloro-4-fluoro-benzenesulfonyl)-2-(pyridin-4-yloxymethyl)-cyclopentanecarboxylic acid (1-cyano-cyclopropyl)-amide] | 11.1 |
| N#CC1(NC(=O)[C@@H]2C[C@@H](S(=O)(=O)c3ccc(F)cc3Cl)C[C@H]2COc2ccccc2)CC1 [Example 164, (1R,2R,4S)-4-(2-Chloro-4-fluoro-benzenesulfonyl)-2-phenoxymethyl-cyclopentanecarboxylic acid (1-cyano-cyclopropyl)-amide] | 3 |
| N#CC1(NC(=O)[C@@H]2C[C@@H](S(=O)(=O)c3ccc(F)cc3Cl)C[C@H]2COc2cccnc2)CC1 [Example 165, (1R,2R,4S)-4-(2-Chloro-4-fluoro-benzenesulfonyl)-2-(pyridin-3-yloxymethyl)-cyclopentanecarboxylic acid (1-cyano-cyclopropyl)-amide] | 6.83 |
| CC(=O)N1CCN(c2ccc(S(=O)(=O)[C@@H]3C[C@@H](C(=O)NC4(C#N)CC4)[C@H](C(=O)N4CC(F)(F)C4)C3)c(Cl)c2)CC1 [Example 166, (1R,2R,4R)-4-[4-(4-Acetyl-piperazin-1-yl)-2-chloro-benzenesulfonyl]-2-(3,3-difluoro-azetidine-1-carbonyl)-cyclopentanecarboxylic acid (1-cyano-cyclopropyl)-amide] | 0.6 |
| N#CC1(NC(=O)[C@@H]2C[C@@H](S(=O)(=O)c3ccc(-n4cccn4)cc3Cl)C[C@H]2C(=O)N2CC(F)(F)C2)CC1 [Example 167, (1R,2R,4R)-4-(2-Chloro-4-pyrazol-1-yl-benzenesulfonyl)-2-(3,3-difluoro-azetidine-1-carbonyl)-cyclopentanecarboxylic acid (1-cyano-cyclopropyl)-amide] | 1.47 |
| COCCOc1ccc(S(=O)(=O)[C@@H]2C[C@@H](C(=O)NC3(C#N)CC3)[C@H](C(=O)N3CC(F)(F)C3)C2)c(Cl)c1 [Example 168, (1R,2R,4R)-4-[2-Chloro-4-(2-methoxy-ethoxy)-benzenesulfonyl]-2-(3,3-difluoro-azetidine-1-carbonyl)-cyclopentanecarboxylic acid (1-cyano-cyclopropyl)-amide] | 1.27 |
| N#CC1(NC(=O)[C@@H]2C[C@@H](S(=O)(=O)c3ccc(F)cc3Cl)C[C@H]2C(=O)N2CCC(F)(F)C2)CC1 [Example 186, (1R,2R,4R)-4-(2-Chloro-4-fluoro-benzenesulfonyl)-2-(3,3-difluoro-pyrrolidine-1-carbonyl)-cyclopentanecarboxylic acid (1-cyano-cyclopropyl)-amide] | 2.15 |
| N#CC1(NC(=O)[C@@H]2C[C@@H](S(=O)(=O)c3ccc(Br)cc3Cl)C[C@H]2C(=O)N2CCC(F)(F)C2)CC1 [Example 187, (1R,2R,4R)-4-(4-Bromo-2-chloro-benzenesulfonyl)-2-(3,3-difluoro-pyrrolidine-1-carbonyl)-cyclopentanecarboxylic acid (1-cyano-cyclopropyl)-amide] | 1.07 |
| N#CC1(NC(=O)[C@@H]2C[C@@H](S(=O)(=O)c3cccc(Br)c3)C[C@H]2C(=O)N2CCC(F)(F)C2)CC1 [Example 188, (1R,2R,4R)-4-(3-Bromo-benzenesulfonyl)-2-(3,3-difluoro-pyrrolidine-1-carbonyl)-cyclopentanecarboxylic acid (1-cyano-cyclopropyl)-amide] | 0.985 |
| N#CC1(NC(=O)[C@@H]2C[C@@H](S(=O)(=O)c3ccc(OCC(F)(F)F)cc3Cl)C[C@H]2C(=O)N2CCC(F)(F)C2)CC1 [Example 189, (1R,2R,4R)-4-[2-Chloro-4-(2,2,2-trifluoro-ethoxy)-benzenesulfonyl]-2-(3,3-difluoro-pyrrolidine-1-carbonyl)-cyclopentanecarboxylic acid (1-cyano-cyclopropyl)-amide] | 0.675 |
| C[C@H](Oc1ccc(S(=O)(=O)[C@@H]2C[C@@H](C(=O)NC3(C#N)CC3)[C@H](C(=O)N3CCC(F)(F)C3)C2)c(Cl)c1)C(F)(F)F [Example 190, (1R,2R,4R)-4-[2-Chloro-4-((S)-2,2,2-trifluoro-1-methyl-ethoxy)-benzenesulfonyl]-2-(3,3-difluoro-pyrrolidine-1-carbonyl)-cyclopentanecarboxylic acid (1-cyano-cyclopropyl)-amide] | 0.84 |

The next compounds have a lower IC50 than those just listed; values first:

| IC50 [nM] | SMILES |
| --- | --- |
| 0.575 | N#CC1(NC(=O)[C@@H]2C[C@@H](S(=O)(=O)c3ccc(N4CCN(C5CC5)CC4)cc3Cl)C[C@H]2C(=O)N2CCC(F)(F)C2)CC1 [Example 191, (1R,2R,4R)-4-[2-Chloro-4-(4-cyclopropyl-piperazin-1-yl)-benzenesulfonyl]-2-(3,3-difluoro-pyrrolidine-1-carbonyl)-cyclopentanecarboxylic acid (1-cyano-cyclopropyl)-amide] |
| 0.155 | CC(C)(C)N1CCN(c2ccc(S(=O)(=O)[C@@H]3C[C@@H](C(=O)NC4(C#N)CC4)[C@H](C(=O)N4CCC(F)(F)C4)C3)c(Cl)c2)CC1 [Example 192, (1R,2R,4R)-4-[4-(4-tert-Butyl-piperazin-1-yl)-2-chloro-benzenesulfonyl]-2-(3,3-difluoro-pyrrolidine-1-carbonyl)-cyclopentanecarboxylic acid (1-cyano-cyclopropyl)-amide] |
| 0.215 | Cn1nccc1-c1ccc(S(=O)(=O)[C@@H]2C[C@@H](C(=O)NC3(C#N)CC3)[C@H](C(=O)N3CCC(F)(F)C3)C2)c(Cl)c1 [Example 196, (1R,2R,4R)-4-[2-Chloro-4-(2-methyl-2H-pyrazol-3-yl)-benzenesulfonyl]-2-(3,3-difluoro-pyrrolidine-1-carbonyl)-cyclopentanecarboxylic acid (1-cyano-cyclopropyl)-amide] |
| 0.14 | Cn1cc(-c2ccc(S(=O)(=O)[C@@H]3C[C@@H](C(=O)NC4(C#N)CC4)[C@H](C(=O)N4CCC(F)(F)C4)C3)c(Cl)c2)cn1 [Example 197, (1R,2R,4R)-4-[2-Chloro-4-(1-methyl-1H-pyrazol-4-yl)-benzenesulfonyl]-2-(3,3-difluoro-pyrrolidine-1-carbonyl)-cyclopentanecarboxylic acid (1-cyano-cyclopropyl)-amide] |
| 0.135 | Cc1cc(-c2ccc(S(=O)(=O)[C@@H]3C[C@@H](C(=O)NC4(C#N)CC4)[C@H](C(=O)N4CCC(F)(F)C4)C3)c(Cl)c2)ccn1 [Example 198, (1R,2R,4R)-4-[2-Chloro-4-(2-methyl-pyridin-4-yl)-benzenesulfonyl]-2-(3,3-difluoro-pyrrolidine-1-carbonyl)-cyclopentanecarboxylic acid (1-cyano-cyclopropyl)-amide] |
| 0.135 | N#CC1(NC(=O)[C@@H]2C[C@@H](S(=O)(=O)c3ccc(-c4ccnc(Cl)c4)cc3Cl)C[C@H]2C(=O)N2CCC(F)(F)C2)CC1 [Example 199, (1R,2R,4R)-4-[2-Chloro-4-(2-chloro-pyridin-4-yl)-benzenesulfonyl]-2-(3,3-difluoro-pyrrolidine-1-carbonyl)-cyclopentanecarboxylic acid (1-cyano-cyclopropyl)-amide] |
| 0.445 | Cc1ccc(S(=O)(=O)[C@@H]2C[C@@H](C(=O)NC3(C#N)CC3)[C@H](C(=O)N3CCC(F)(F)C3)C2)c(Cl)c1 [Example 200, (1R,2R,4R)-4-(2-Chloro-4-methyl-benzenesulfonyl)-2-(3,3-difluoro-pyrrolidine-1-carbonyl)-cyclopentanecarboxylic acid (1-cyano-cyclopropyl)-amide] |
| 0.34 | Cn1nccc1-c1cccc(S(=O)(=O)[C@@H]2C[C@@H](C(=O)NC3(C#N)CC3)[C@H](C(=O)N3CCC(F)(F)C3)C2)c1 [Example 201, (1R,2R,4R)-2-(3,3-Difluoro-pyrrolidine-1-carbonyl)-4-[3-(2-methyl-2H-pyrazol-3-yl)-benzenesulfonyl]-cyclopentanecarboxylic acid (1-cyano-cyclopropyl)-amide] |
| 0.38 | Cn1cc(-c2cccc(S(=O)(=O)[C@@H]3C[C@@H](C(=O)NC4(C#N)CC4)[C@H](C(=O)N4CCC(F)(F)C4)C3)c2)cn1 [Example 202, (1R,2R,4R)-2-(3,3-Difluoro-pyrrolidine-1-carbonyl)-4-[3-(1-methyl-1H-pyrazol-4-yl)-benzenesulfonyl]-cyclopentanecarboxylic acid (1-cyano-cyclopropyl)-amide] |
| 0.195 | Cc1cc(-c2cccc(S(=O)(=O)[C@@H]3C[C@@H](C(=O)NC4(C#N)CC4)[C@H](C(=O)N4CCC(F)(F)C4)C3)c2)ccn1 [Example 203, (1R,2R,4R)-2-(3,3-Difluoro-pyrrolidine-1-carbonyl)-4-[3-(2-methyl-pyridin-4-yl)-benzenesulfonyl]-cyclopentanecarboxylic acid (1-cyano-cyclopropyl)-amide] |
| 0.135 | N#CC1(NC(=O)[C@@H]2C[C@@H](S(=O)(=O)c3cccc(-c4ccnc(Cl)c4)c3)C[C@H]2C(=O)N2CCC(F)(F)C2)CC1 [Example 204, (1R,2R,4R)-4-[3-(2-Chloro-pyridin-4-yl)-benzenesulfonyl]-2-(3,3-difluoro-pyrrolidine-1-carbonyl)-cyclopentanecarboxylic acid (1-cyano-cyclopropyl)-amide] |
| 0.325 | Cc1cccc(S(=O)(=O)[C@@H]2C[C@@H](C(=O)NC3(C#N)CC3)[C@H](C(=O)N3CCC(F)(F)C3)C2)c1 [Example 205, (1R,2R,4R)-2-(3,3-Difluoro-pyrrolidine-1-carbonyl)-4-(toluene-3-sulfonyl)-cyclopentanecarboxylic acid (1-cyano-cyclopropyl)-amide] |
